Measurements: US11779572B1, “Methods of treating gastrointestinal stromal tumors” (Deciphera Pharmaceuticals, LLC, priority 2022, dated 2023)

What was measured:
[1] = test system: GIST patients; assay: Example 2 study: treatment-emergent adverse events; format: in vivo, human
Experimental: Grade 3 or 4 treatment-emergent adverse events (TEAEs) in >5% of patients were lipase increased (18%; n=33), anemia (11%; n=20), hypertension (7%; n=13) and abdominal pain (6%; n=11). 13% of patients (n=24) experienced TEAEs leading to study treatment discontinuation, 17% of patients (n=31) experienced TEAEs leading to dose reduction and 49% of patients (n=88) had TEAEs leading to study drug interruption. Table 3 lists TEAEs >10% for GIST patients treated with ≥100 mg of ripretinib daily.

[2] = test system: patients with advanced GIST; assay: Example 1 study: treatment-emergent adverse events, safety; format: in vivo, human
Experimental: Patients were randomized 2:1 to either 150 mg of ripretinib or placebo once daily. The primary efficacy endpoint is progression-free survival (PFS) as determined by independent radiologic review using modified Response Evaluation Criteria in Solid Tumors (RECIST). Secondary endpoints as determined by independent radiologic review using modified RECIST include Objective Response Rate (ORR), Time to Tumor Progression (TTP) and Overall Survival (OS).
The safety of ripretinib and the impact of alopecia and palmar-plantar erythrodysesthesia (PPES) on patient-reported outcomes (PROs) of patients treated in the study described in Example 1 herein are described. […] When stratified by alopecia and PPES, patient reported assessments of function, overall health, and overall quality of life were maintained over time.

[3] = PBPK model of ripretinib and DP-5439 (Simcyp Simulator)
Source text: A PBPK model that included a mechanistic absorption model was developed.
Thus, potential auto-induction and auto-inhibition effects were captured within the model.
Single dose (SD) PK data from participants with mild, moderate, and severe HI were used to refine and/or verify the PBPK model. […] Subsequently, the corresponding plasma concentration-time profiles in HI participants were likewise simulated and compared to the observed data.
Predictions of plasma drug concentration-time profiles, clearance and DDIs were performed in the Simcyp Simulator using a population of virtual participants. The default healthy participant population was applied in all simulations involving healthy participants. […] With the exception of demographic data, all parameter values for the healthy participant population were the same as those used for the North European Caucasian population.
For simulations involving cancer participants, the North European Caucasian population was used to accommodate the wider age range observed in this population (19 to 87 years old; median 61 years). Weibull age distribution was applied with alpha and beta values of 5.47 and 66.5 years for male participants and 5.22 and 68.57 years for female participants. Age, height and weight distributions for the simulated virtual participant population were consistent with those from the first-in-human dose-escalation study in cancer patients.
For simulations involving participants with HI, 3 population models have been developed for the Simcyp Simulator and are based on the 3 Child-Pugh categories (CP-A, CP-B and CP-C). […] When reduced hepatic size was also taken into account, overall CYP3A4 expression in CP-A, CP-B and CP-C participants was reduced to 69%, 36% and 20%, respectively, to that of healthy participants.

[4] = ≥100 mg daily, col c2 (no head; Grade 3 or 4)
[5] = ≥100 mg daily, col c3 (no head; c1+c2)

For `CCn1c(=O)c(-c2cc(NC(=O)Nc3ccccc3)c(F)cc2Br)cc2cnc(NC)cc21` [ripretinib], the tolerability ([1]; GIST patients ≥100 mg daily) was “generally well tolerated”, the “Grade 3 or 4 TEAE abdominal pain” value ([1]; ≥100 mg daily) was 6% and the “Grade 3 or 4 TEAE anemia” value ([1]; ≥100 mg daily) was 11%. The “Grade 3 or 4 TEAE hypertension” value ([1]; ≥100 mg daily) was 7%, the “Grade 3 or 4 TEAE lipase increased” value ([1]; ≥100 mg daily) was 18% and the “patients with TEAEs leading to dose reduction” value ([1]; ≥100 mg daily) was 17%. The “patients with TEAEs leading to study drug interruption” value ([1]; ≥100 mg daily) was 49%, the “patients with TEAEs leading to study treatment discontinuation” value ([1]; ≥100 mg daily) was 13% and the “TEAE: Abdominal pain” value ([1]; ≥100 mg daily, col c1) was 33 (18%). The “TEAE: Actinic keratosis” value ([1]; ≥100 mg daily, col c1) was 25 (14%), the “TEAE: Alopecia” value ([1]; ≥100 mg daily, col c1) was 102 (57%) and the “TEAE: Amylase increased” value ([1]; ≥100 mg daily, col c1) was 19 (11%). For the same molecule, the “TEAE: Anemia” value ([1]; ≥100 mg daily, col c1) was 18 (10%), the “TEAE: Arthralgia” value ([1]; ≥100 mg daily, col c1) was 40 (22%) and the “TEAE: Back Pain” value ([1]; ≥100 mg daily, col c1) was 30 (17%). The “TEAE: Blood bilirubin increase” value ([1]; ≥100 mg daily, col c1) was 16 (9%), the “TEAE: Blood creatine phosphokinase increased” value ([1]; ≥100 mg daily, col c1) was 13 (7%) and the “TEAE: Constipation” value ([1]; ≥100 mg daily, col c1) was 67 (37%). For the same molecule, the “TEAE: Cough” value ([1]; ≥100 mg daily, col c1) was 37 (21%), the “TEAE: Decreased appetite” value ([1]; ≥100 mg daily, col c1) was 60 (34%) and the “TEAE: Diarrhea” value ([1]; ≥100 mg daily, col c1) was 50 (28%). For the same molecule, the “TEAE: Dizziness” value ([1]; ≥100 mg daily, col c1) was 29 (16%), the “TEAE: Dry skin” value ([1]; ≥100 mg daily, col c1) was 37 (21%) and the “TEAE: Dysgeusia” value ([1]; ≥100 mg daily, col c1) was 20 (11%). For the same molecule, the “TEAE: Dyspnea” value ([1]; ≥100 mg daily, col c1) was 32 (18%), the “TEAE: Fatigue” value ([1]; ≥100 mg daily, col c1) was 94 (53%) and the “TEAE: Headache” value ([1]; ≥100 mg daily, col c1) was 33 (18%). The “TEAE: Hypertension” value ([1]; ≥100 mg daily, col c1) was 25 (14%), the “TEAE: Hypokalaemia” value ([1]; ≥100 mg daily, col c1) was 21 (12%) and the “TEAE: Hypomagnesaemia” value ([1]; ≥100 mg daily, col c1) was 18 (10%). For the same molecule, the “TEAE: Hypophosphataemia” value ([1]; ≥100 mg daily, col c1) was 17 (10%), the “TEAE: Insomnia” value ([1]; ≥100 mg daily, col c1) was 21 (12%) and the “TEAE: Lipase increased” value ([1]; ≥100 mg daily, col c1) was 18 (10%). For the same molecule, the “TEAE: Muscle spasms” value ([1]; ≥100 mg daily, col c1) was 47 (26%), the “TEAE: Myalgia” value ([1]; ≥100 mg daily, col c1) was 79 (44%) and the “TEAE: Nausea” value ([1]; ≥100 mg daily, col c1) was 77 (43%). For the same molecule, the “TEAE: Pain in extremity” value ([1]; ≥100 mg daily, col c1) was 18 (10%), the “TEAE: Palmar-plantar erythrodysaesthesia syndrome” value ([1]; ≥100 mg daily, col c1) was 71 (40%) and the “TEAE: Pruritus” value ([1]; ≥100 mg daily, col c1) was 18 (10%). For the same molecule, the “TEAE: Rash” value ([1]; ≥100 mg daily, col c1) was 27 (15%), the “TEAE: Rash maculo-papular” value ([1]; ≥100 mg daily, col c1) was 18 (10%) and the “TEAE: Seborrhoeic keratosis” value ([1]; ≥100 mg daily, col c1) was 21 (12%). For the same molecule, the “TEAE: Skin papilloma” value ([1]; ≥100 mg daily, col c1) was 17 (10%), the “TEAE: Upper respiratory tract infection” value ([1]; ≥100 mg daily, col c1) was 18 (10%) and the “TEAE: Urinary tract infection” value ([1]; ≥100 mg daily, col c1) was 16 (9%). For the same molecule, the “TEAE: Vision blurred” value ([1]; ≥100 mg daily, col c1) was 17 (10%), the “TEAE: Vomiting” value ([1]; ≥100 mg daily, col c1) was 42 (24%) and the “TEAE: Weight decreased” value ([1]; ≥100 mg daily, col c1) was 51 (29%). The “TEAE: Abdominal pain” value [1, 4] was 11 (6%), the “TEAE: Actinic keratosis” value [1, 4] was 0 (0%) and the “TEAE: Alopecia” value [1, 4] was 0 (0%). The “TEAE: Amylase increased” value [1, 4] was 2 (1%), the “TEAE: Anemia” value [1, 4] was 20 (11%) and the “TEAE: Arthralgia” value [1, 4] was 0 (0%). The “TEAE: Back Pain” value [1, 4] was 2 (1%), the “TEAE: Blood bilirubin increase” value [1, 4] was 5 (3%) and the “TEAE: Blood creatine phosphokinase increased” value [1, 4] was 5 (3%). The “TEAE: Constipation” value [1, 4] was 0 (0%), the “TEAE: Cough” value [1, 4] was 0 (0%) and the “TEAE: Decreased appetite” value [1, 4] was 2 (1%). For the same molecule, the “TEAE: Diarrhea” value [1, 4] was 3 (2%), the “TEAE: Dizziness” value [1, 4] was 0 (0%) and the “TEAE: Dry skin” value [1, 4] was 0 (0%). For the same molecule, the “TEAE: Dysgeusia” value [1, 4] was 0 (0%), the “TEAE: Dyspnea” value [1, 4] was 4 (2%) and the “TEAE: Fatigue” value [1, 4] was 4 (2%). The “TEAE: Headache” value [1, 4] was 1 (1%), the “TEAE: Hypertension” value [1, 4] was 13 (7%) and the “TEAE: Hypokalaemia” value [1, 4] was 5 (3%). The “TEAE: Hypomagnesaemia” value [1, 4] was 0 (0%), the “TEAE: Hypophosphataemia” value [1, 4] was 8 (5%) and the “TEAE: Insomnia” value [1, 4] was 0 (0%). The “TEAE: Lipase increased” value [1, 4] was 33 (18%), the “TEAE: Muscle spasms” value [1, 4] was 0 (0%) and the “TEAE: Myalgia” value [1, 4] was 0 (0%). For the same molecule, the “TEAE: Nausea” value [1, 4] was 1 (1%), the “TEAE: Pain in extremity” value [1, 4] was 1 (1%) and the “TEAE: Palmar-plantar erythrodysaesthesia syndrome” value [1, 4] was 1 (1%). The “TEAE: Pruritus” value [1, 4] was 0 (0%), the “TEAE: Rash” value [1, 4] was 0 (0%) and the “TEAE: Rash maculo-papular” value [1, 4] was 0 (0%). For the same molecule, the “TEAE: Seborrhoeic keratosis” value [1, 4] was 0 (0%), the “TEAE: Skin papilloma” value [1, 4] was 0 (0%) and the “TEAE: Upper respiratory tract infection” value [1, 4] was 0 (0%). For the same molecule, the “TEAE: Urinary tract infection” value [1, 4] was 4 (2%), the “TEAE: Vision blurred” value [1, 4] was 0 (0%) and the “TEAE: Vomiting” value [1, 4] was 2 (1%). The “TEAE: Weight decreased” value [1, 4] was 1 (1%), the “TEAE: Abdominal pain” value [1, 5] was 44 (25%) and the “TEAE: Actinic keratosis” value [1, 5] was 25 (14%). The “TEAE: Alopecia” value [1, 5] was 102 (57%), the “TEAE: Amylase increased” value [1, 5] was 21 (12%) and the “TEAE: Anemia” value [1, 5] was 38 (21%). For the same molecule, the “TEAE: Arthralgia” value [1, 5] was 40 (22%), the “TEAE: Back Pain” value [1, 5] was 32 (18%) and the “TEAE: Blood bilirubin increase” value [1, 5] was 21 (12%). The “TEAE: Blood creatine phosphokinase increased” value [1, 5] was 18 (10%), the “TEAE: Constipation” value [1, 5] was 67 (37%) and the “TEAE: Cough” value [1, 5] was 37 (21%). For the same molecule, the “TEAE: Decreased appetite” value [1, 5] was 62 (35%), the “TEAE: Diarrhea” value [1, 5] was 53 (30%) and the “TEAE: Dizziness” value [1, 5] was 29 (16%). The “TEAE: Dry skin” value [1, 5] was 37 (21%), the “TEAE: Dysgeusia” value [1, 5] was 20 (11%) and the “TEAE: Dyspnea” value [1, 5] was 36 (20%). The “TEAE: Fatigue” value [1, 5] was 98 (55%), the “TEAE: Headache” value [1, 5] was 34 (19%) and the “TEAE: Hypertension” value [1, 5] was 38 (21%). The “TEAE: Hypokalaemia” value [1, 5] was 26 (15%), the “TEAE: Hypomagnesaemia” value [1, 5] was 18 (10%) and the “TEAE: Hypophosphataemia” value [1, 5] was 25 (14%). For the same molecule, the “TEAE: Insomnia” value [1, 5] was 21 (12%), the “TEAE: Lipase increased” value [1, 5] was 51 (29%) and the “TEAE: Muscle spasms” value [1, 5] was 47 (26%). The “TEAE: Myalgia” value [1, 5] was 79 (44%), the “TEAE: Nausea” value [1, 5] was 78 (44%) and the “TEAE: Pain in extremity” value [1, 5] was 19 (11%). The “TEAE: Palmar-plantar erythrodysaesthesia syndrome” value [1, 5] was 72 (40%), the “TEAE: Pruritus” value [1, 5] was 18 (10%) and the “TEAE: Rash” value [1, 5] was 27 (15%). The “TEAE: Rash maculo-papular” value [1, 5] was 18 (10%), the “TEAE: Seborrhoeic keratosis” value [1, 5] was 21 (12%) and the “TEAE: Skin papilloma” value [1, 5] was 17 (10%). The “TEAE: Upper respiratory tract infection” value [1, 5] was 18 (10%), the “TEAE: Urinary tract infection” value [1, 5] was 20 (11%) and the “TEAE: Vision blurred” value [1, 5] was 17 (10%). For the same molecule, the “TEAE: Vomiting” value [1, 5] was 44 (25%), the “TEAE: Weight decreased” value [1, 5] was 52 (29%) and the alopecia in females ([2]; female, human, in vivo) was 56.8%. For the same molecule, the “Grade 3 or 4 TEAE abdominal pain” value ([2]; human, in vivo) was 7%, the “Grade 3 or 4 TEAE hypertension” value ([2]; human, in vivo) was 7% and the “TEAE alopecia (most common TEAE)” value ([2]; human, in vivo) was 51.8%. The “patients reporting PPES” value ([2]; human, in vivo) was 21.2%, the “patients with Grade 3 or 4 TEAEs” value ([2]; human, in vivo) was 42 (49%) and the “patients with a TEAE leading to dose interruption” value ([2]; human, in vivo) was 23.5%. For the same molecule, the “patients with a TEAE leading to dose reduction” value ([2]; human, in vivo) was 7.1%, the “TEAEs during the crossover period” value ([2]; in vivo) was “no safety concerns” and the “patients with grade 3 PPES” value ([2]; in vivo) was “no patients”. The “serious adverse events of alopecia or PPES” value ([2]; in vivo) was “no serious adverse events”, the alopecia in males ([2]; male, human, in vivo) was 43.2% and the “patients with a TEAE leading to death” value ([2]; ripretinib arm) was 5.9%. For the same molecule, the “all predictions relative to observed” value ([3]; 150 mg QD dose) was no more than 1.25 fold and the “predicted mean AUC0-12 and Cmax relative to observed values” ([3]; Day 1 and Day 15, except 250-mg QD dose) was no more than 1.5 fold.
